Laboratory results: patent US20100267561A1, “HERBICIDAL PYRIDAZINONE DERIVATIVES” (priority 2007, published 2010)
Like-named read-outs stand apart in the source and are kept apart here.

Columns and labels:
Format in all cases: in vivo
[1] = test system: giant foxtail (Setaria faberi); experiment: Test A pre-/postemergence plant response; conditions: Setaria faberi, 240 h, read-out: Plant response rating, Foxtail, Giant; for pest or weed control at 31 g/ha: 31 g ai/ha; for pest or weed control at 125 g/ha: 125 g ai/ha
In short: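 Both pre- and postemergence treatment given concurrently; postemergence seedlings measured 2–10 cm at the one- to two-leaf stage. Visual injury, 0–100 scale versus untreated, at ~10 days.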

[2] = test system: bermudagrass (Cynodon dactylon); experiment: Test B pre-/postemergence plant response; conditions: for pest or weed control at 31 g/ha: 31 g ai/ha; for pest or weed control at 62 g/ha: 62 g ai/ha, 100 complete control
In short: (§1)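 Preemergence and postemergence (plants 2-18 cm, 1- to 4-leaf stage) applications used test chemicals in a non-phytotoxic solvent with surfactant. Plants were held in a greenhouse 13 to 15 days, then rated visually against controls on a 0-100 scale (0 no effect, 100 complete control).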

[3] = test system: blackgrass (Alopecurus myosuroides); experiment: Test B pre-/postemergence plant response; conditions: for pest or weed control at 31 g/ha: 31 g ai/ha; for pest or weed control at 62 g/ha: 62 g ai/ha, 100 complete control
In short: as §1

[4] = test system: common (oilseed) sunflower (Helianthus annuus); experiment: Test B pre-/postemergence plant response; conditions: Preemergence
In short: as §1

[5] = test system: downy bromegrass (Bromus tectorum); experiment: Test B pre-/postemergence plant response; conditions: for pest or weed control at 31 g/ha: 31 g ai/ha; for pest or weed control at 62 g/ha: 62 g ai/ha, 100 complete control
In short: as §1

[6] = test system: giant foxtail (Setaria faberii); experiment: Test B pre-/postemergence plant response; conditions: for pest or weed control at 31 g/ha: 31 g ai/ha; for pest or weed control at 62 g/ha: 62 g ai/ha, 100 complete control
In short: as §1

[7] = test system: goosegrass (Eleusine indica); experiment: Test B pre-/postemergence plant response; conditions: for Goosegrass plant response rating: postemergence, 0-100 scale
In short: as §1

[8] = 8 g ai/ha, postemergence, 0-100 scale
[9] = Preemergence, 8 g ai/ha, scale 0 to 100 (0 no effect, 100 complete control)
[10] = Preemergence, 16 g ai/ha, scale 0 to 100

## Cc1cc(-c2ccc(Br)cc2)nn1-c1c(O)cn[nH]c1=O [Compound 78, 4-[3-(4-bromophenyl)-5-methyl-1H-pyrazol-1-yl]-5-hydroxy-3(2H)-pyridazinone]
[1]; post-emergence, Postemergence, 0 to 100 scale (0 no effect, 100 complete control)
  pest or weed control at 31 g/ha: 80%
[1]; post-emergence, Postemergence, 0 to 100 scale, 0 no effect, 100 complete control
  pest or weed control at 125 g/ha: 100%
[1]; pre-emergence, Preemergence, 0 to 100 scale, 0 is no effect, 100 is complete control
  pest or weed control at 31 g/ha: 20%
[1]; pre-emergence, Preemergence, 0 to 100 scale (0 no effect, 100 complete control)
  pest or weed control at 125 g/ha: 100%
[2]; [8]
  Bermudagrass plant response rating: 80
[2]; Cynodon dactylon, post-emergence, Postemergence, 16 g ai/ha, scale 0 to 100, read-out: Plant response rating, Bermudagrass
  pest or weed control at 16 g/ha: 98%
[2]; Cynodon dactylon, post-emergence, Postemergence, scale 0 to 100, read-out: Plant response rating, Bermudagrass
  pest or weed control at 31 g/ha: 100%
[2]; Cynodon dactylon, post-emergence, Postemergence, scale 0 to 100, 0 no effect, read-out: Plant response rating, Bermudagrass
  pest or weed control at 62 g/ha: 100%
[2]; Cynodon dactylon, pre-emergence, Preemergence, scale 0 to 100 (0 no effect, 100 complete control), read-out: Plant response rating, Bermudagrass
  pest or weed control at 31 g/ha: 100%
[2]; Cynodon dactylon, pre-emergence, Preemergence, 0 to 100 scale, 0 no effect, read-out: Plant response rating, Bermudagrass
  pest or weed control at 62 g/ha: 100%
[2]; [9]
  Bermudagrass plant response rating: 85
[2]; Preemergence, 16 g ai/ha, scale 0 to 100 (0 no effect, 100 complete control)
  Bermudagrass plant response rating: 100
[3]; [8]
  Blackgrass plant response rating: 70
[3]; Alopecurus myosuroides, post-emergence, Postemergence, 16 g ai/ha, scale 0 to 100, read-out: Plant response rating, Blackgrass
  pest or weed control at 16 g/ha: 95%
[3]; Alopecurus myosuroides, post-emergence, Postemergence, scale 0 to 100, read-out: Plant response rating, Blackgrass
  pest or weed control at 31 g/ha: 100%
[3]; Alopecurus myosuroides, post-emergence, Postemergence, scale 0 to 100, 0 no effect, read-out: Plant response rating, Blackgrass
  pest or weed control at 62 g/ha: 100%
[3]; Alopecurus myosuroides, pre-emergence, Preemergence, scale 0 to 100 (0 no effect, 100 complete control), read-out: Plant response rating, Blackgrass
  pest or weed control at 31 g/ha: 100%
[3]; Alopecurus myosuroides, pre-emergence, Preemergence, 0 to 100 scale, 0 no effect, read-out: Plant response rating, Blackgrass
  pest or weed control at 62 g/ha: 100%
[3]; [9]
  Blackgrass plant response rating: 70
[3]; [10]
  Blackgrass plant response rating: 90
[4]; Helianthus annuus, pre-emergence, 31 g ai/ha, scale 0 to 100 (0 no effect, 100 complete control), read-out: Plant response rating, Sunflower
  pest or weed control at 31 g/ha: 0%
[4]; Helianthus annuus, pre-emergence, 62 g ai/ha, 0 to 100 scale, 0 no effect, 100 complete control, read-out: Plant response rating, Sunflower
  pest or weed control at 62 g/ha: 0%
[4]; 8 g ai/ha, scale 0 to 100 (0 no effect, 100 complete control)
  Sunflower plant response rating: 0
[4]; 16 g ai/ha, scale 0 to 100
  Sunflower plant response rating: 0
[5]; [8]
  Bromegrass, Downy plant response rating: 55
[5]; Bromus tectorum, post-emergence, Postemergence, 16 g ai/ha, scale 0 to 100, read-out: Plant response rating, Bromegrass, Downy
  pest or weed control at 16 g/ha: 85%
[5]; Bromus tectorum, post-emergence, Postemergence, scale 0 to 100, read-out: Plant response rating, Bromegrass, Downy
  pest or weed control at 31 g/ha: 95%
[5]; Bromus tectorum, post-emergence, Postemergence, scale 0 to 100, 0 no effect, read-out: Plant response rating, Bromegrass, Downy
  pest or weed control at 62 g/ha: 100%
[5]; Bromus tectorum, pre-emergence, Preemergence, scale 0 to 100 (0 no effect, 100 complete control), read-out: Plant response rating, Bromegrass, Downy
  pest or weed control at 31 g/ha: 80%
[5]; Bromus tectorum, pre-emergence, Preemergence, 0 to 100 scale, 0 no effect, read-out: Plant response rating, Bromegrass, Downy
  pest or weed control at 62 g/ha: 98%
[5]; [9]
  Bromegrass, Downy plant response rating: 40
[5]; [10]
  Bromegrass, Downy plant response rating: 60
[6]; [8]
  Foxtail, Giant plant response rating: 98
[6]; [9]
  Foxtail, Giant plant response rating: 98
[6]; [10]
  Foxtail, Giant plant response rating: 100
[6]; Setaria faberi, post-emergence, Postemergence, 16 g ai/ha, scale 0 to 100, read-out: Plant response rating, Foxtail, Giant
  pest or weed control at 16 g/ha: 100%
[6]; Setaria faberi, post-emergence, Postemergence, scale 0 to 100, read-out: Plant response rating, Foxtail, Giant
  pest or weed control at 31 g/ha: 100%
[6]; Setaria faberi, post-emergence, Postemergence, scale 0 to 100, 0 no effect, read-out: Plant response rating, Foxtail, Giant
  pest or weed control at 62 g/ha: 100%
[6]; Setaria faberi, pre-emergence, Preemergence, scale 0 to 100 (0 no effect, 100 complete control), read-out: Plant response rating, Foxtail, Giant
  pest or weed control at 31 g/ha: 100%
[6]; Setaria faberi, pre-emergence, Preemergence, 0 to 100 scale, 0 no effect, read-out: Plant response rating, Foxtail, Giant
  pest or weed control at 62 g/ha: 100%
[7]; 8 g ai/ha
  Goosegrass plant response rating: 70
[7]; 16 g ai/ha
  Goosegrass plant response rating: 85
[7]; Eleusine indica, post-emergence, Postemergence, 31 g ai/ha, scale 0 to 100, read-out: Plant response rating, Goosegrass
  pest or weed control at 31 g/ha: 90%
[7]; Eleusine indica, post-emergence, Postemergence, 62 g ai/ha, scale 0 to 100, 0 no effect, 100 complete control, read-out: Plant response rating, Goosegrass
  pest or weed control at 62 g/ha: 100%
